Data published in PubChem BioAssay AID1356 (Sanford-Burnham Center for Chemical Genomics, 2008).

Test system: HeLa thapsigargin-induced death, ATPlite luminescence, 24 h
Test: HeLa survival under thapsigargin ER stress – cell-based, HeLa cervical carcinoma, ATP content, SAR follow-up (AID 1356)
Conditions: at 25 µM, stronger effect = higher value
[1] = measured here: survival at thapsigargin 15 uM
[2] = measured here: survival at thapsigargin 20 uM
[3] = measured here: survival, thapsigargin level col 9
[4] = measured here: survival, thapsigargin level col 10

Row | Compound | survival [%] | survival [1] [%] | survival [2] [%] | survival [3] [%] | survival [4] [%]
1 | CSc1ccc(C2Nc3ccccc3NC3=C2C(=O)CC(c2ccccc2)C3)cc1 (stereo not given) | 85 | 77 | 23 | 81 | 83
2 | COc1ccc(C2CC(=O)C3=C(C2)Nc2ccccc2NC3c2cccc(C(F)(F)F)c2)cc1OC (stereo not given) | 90 | 100 | 122 | 88 | 90
3 | COc1ccc(C2CC(=O)C3=C(C2)Nc2ccccc2NC3c2cc(C)ccc2C)cc1 (stereo not given) | 99 | 83 | 24 | 80 | 81
4 | CCOc1cccc(C2Nc3ccccc3NC3=C2C(=O)CC(c2ccc(OC)cc2)C3)c1 (stereo not given) | 96 | 8 | 3 | 81 | 106
5 | COc1ccc(C2CC(=O)C3=C(C2)Nc2ccccc2NC3c2cccc(Br)c2)cc1OC (stereo not given) | 87 | 93 | 90 | 86 | 92
6 | CC1(C)CC(=O)C2=C(C1)Nc1ccccc1NC2c1ccc(-c2ccccc2)cc1 (stereo not given) | 97 | 106 | 114 | 92 | 88
7 | CCCOc1ccc(C2Nc3ccccc3NC3=C2C(=O)CC(c2ccc(OC)c(OC)c2)C3)cc1 (stereo not given) | 91 | 109 | 90 | 88 | 90
8 | COc1ccc(C2CC(=O)C3=C(C2)Nc2ccccc2NC3c2cccc(Oc3ccccc3)c2)cc1OC (stereo not given) | 90 | 96 | 102 | 87 | 85
9 | O=C1CC(c2ccccc2)CC2=C1C(c1c(F)cccc1Cl)Nc1ccccc1N2 (stereo not given) | 118 | 89 | 18 | 93 | 99
10 | COc1ccc(C2CC(=O)C3=C(C2)Nc2ccccc2NC3c2ccccc2C(F)(F)F)cc1OC (stereo not given) | 92 | 107 | 72 | 93 | 91
11 | CCOc1cc(C2Nc3ccccc3NC3=C2C(=O)CC(c2ccc(OC)cc2)C3)cc(Cl)c1O (stereo not given) | 129 | 29 | 8 | 90 | 106
